Patent publication US20140163082A1, “PYRAZOLYL COMPOUNDS FOR USE IN REVERSING REACTIVE GLIOSIS” (priority 2011, published 2014)

Experiments:
[1] = test system: R28 cells; experiment: Viability assay (DAPI exclusion test), R28; conditions: R28 cells in culture after incubation
[2] = test system: rMC-1 cells; experiment: Viability assay (DAPI exclusion test), rMC-1; conditions: rMC-1 cells in culture after incubation

Q: What does the source list for COc1cccc2c1C(=O)c1c(O)c3c(c(O)c1C2=O)C[C@@](O)(C(=O)CO)C[C@@H]3O[C@H]1C[C@H](N)[C@H](O)[C@H](C)O1 [Doxorubicin]?
A: cell viability (DAPI exclusion) [1]: significant nonviability staining; cell viability (DAPI exclusion) [2]: significant nonviability staining
